Measurements reported in patent publication US10752587B2, “Homobispiperidinyl derivatives as liver X receptor beta agonists, compositions and their use” (Merck Sharp & Dohme Corp., priority 2015, dated 2020).
Read-outs that look alike come from different tables or passages of the source.

Assays:
[1] = target: T1, glutathione-S-transferase (GST) tagged LXRbeta LBD (ligand binding domain) (Homo sapiens, UniProt P55055); assay: LanthaScreen TR-FRET Liver X Receptor Coactivator Assay, co-activator recruitment to LXRbeta LBD; assay type: biochemical
T1 construct: purchased Invitrogen pv4658.pps
T1 sequence (P55055 222-460 limits assumed): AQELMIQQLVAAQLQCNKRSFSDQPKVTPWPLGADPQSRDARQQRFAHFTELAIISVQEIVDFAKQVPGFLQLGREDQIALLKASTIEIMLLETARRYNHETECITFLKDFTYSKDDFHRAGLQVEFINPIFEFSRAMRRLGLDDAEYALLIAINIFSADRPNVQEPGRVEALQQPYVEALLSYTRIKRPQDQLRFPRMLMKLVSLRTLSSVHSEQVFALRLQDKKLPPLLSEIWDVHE
Method in brief: (§1)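 Readout is time-resolved FRET between a terbium anti-GST antibody bound to the LBD and a fluorescein-tagged coactivator peptide recruited on ligand binding. Plates were incubated at room temperature before reading. Potency (IP) and efficacy (Emax) are referenced to T0901317.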

[2] = target: T2, glutathione-S-transferase (GST) tagged LXRalpha LBD (ligand binding domain) (Homo sapiens, UniProt Q13133); assay: LanthaScreen TR-FRET Liver X Receptor Coactivator Assay, co-activator recruitment to LXRalpha LBD; assay type: biochemical
T2 construct: purchased Invitrogen pv4655
T2 sequence (Q13133 209-447 limits assumed): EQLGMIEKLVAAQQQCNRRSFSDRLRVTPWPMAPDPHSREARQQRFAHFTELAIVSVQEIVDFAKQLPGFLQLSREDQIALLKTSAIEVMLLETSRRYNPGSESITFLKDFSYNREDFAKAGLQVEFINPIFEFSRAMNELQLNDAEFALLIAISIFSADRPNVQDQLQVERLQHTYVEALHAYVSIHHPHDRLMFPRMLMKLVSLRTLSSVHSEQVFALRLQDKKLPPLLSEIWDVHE
Method in brief: as §1

[3] = efficacy at max dose, in relation to reference dual agonist T0901317, read-out: LXR beta Activity @ max dose (%)
[4] = potency (Inflection Point, IP), co-activator recruitment to LXRbeta LBD, in relation to T0901317, read-out: LXR beta IP
[5] = efficacy at max dose, in relation to reference dual agonist T0901317, read-out: LXR alpha Activity @ max dose (%)
[6] = potency (Inflection Point, IP), co-activator recruitment to LXRalpha LBD, in relation to T0901317
[7] = co-activator recruitment to GST-LXRbeta LBD, TR-FRET, read-out: LXR beta IP (Inflection Point, potency)
[8] = efficacy in relation to reference dual agonist T0901317, read-out: LXR beta Activity @ max dose
[9] = co-activator recruitment to GST-LXRalpha LBD, TR-FRET
[10] = efficacy in relation to reference dual agonist T0901317, read-out: LXR alpha Activity @ max dose
[11] = LXR beta IP (nM), potency (Inflection Point, IP), co-activator recruitment to LXRbeta LBD, in relation to T0901317
[12] = read-out: LXR beta Activity @ max dose (%)
[13] = potency (Inflection Point, IP), co-activator recruitment to LXRalpha LBD, in relation to T0901317, read-out: LXR alpha IP
[14] = efficacy at max dose, in relation to reference dual agonist T0901317

Row | Emax [1, 3] [%] | EC50 [1, 4] [nM] | Emax [2, 5] [%] | LXR alpha IP (nM) [2, 6] | EC50 [2, 13] [µM] | Compound | also measured
1 | 28 | 13 | 0 | NO IP |  | COc1cccc([C@@](O)(C(=O)N2CCCC(CC3CCN(c4ccc(C(=O)N(C)C)c(Cl)c4)CC3)CC2)C(F)(F)F)c1 (stereo partly drawn) [Example 2-161, 2-chloro-N,N-dimethyl-4-[4-({1-[(2R)-3,3,3-trifluoro-2-hydroxy-2-(3-methoxy-phenyl)propanoyl]azepan-4-yl}methyl)piperidin-1-yl]benzamide] | 
2 |  |  |  |  |  | CN(C)C(=O)c1ccc(N2CCC(CC3CCN(S(=O)(=O)c4cccc(Cl)c4)CC3)CC2)cc1Cl [Example 13-13, 2-chloro-4-[4-({1-[(3-chlorophenyl)sulfonyl]-piperidin-4-yl}methyl)-piperidin-1-yl]-N,N-dimethylbenzamide] | EC50 [1, 7]: 74 nM; Emax [1, 8]: 49%; LXR alpha IP (Inflection Point, potency) [2, 9]: NO IP; Emax [2, 10]: 15%
3 | 60 | 10 | 12 | NO IP |  | CNC(=O)c1ccc(N2CCC(CC3CCN(C(=O)[C@](O)(c4cccc(OC)c4)C(F)(F)F)CC3)CC2)cc1Cl [Example 7-33, 2-chloro-N-methyl-4-[4-({1-[(2R)-3,3,3-trifluoro-2-hydroxy-2-(3-methoxyphenyl)propanoyl]piperidin-4-yl}methyl)piperidin-1-yl]benzamide] | 
4 | 122 | 31 | 47 |  | 1.68 | CN(C)C(=O)c1ccc(N2CCC(CC3CCN(C(=O)C(N)(c4ccccc4)C(F)(F)F)CC3)CC2)nc1Cl (centres unmarked) [Example 7-103, 6-(4-{[1-(2-amino-3,3,3-trifluoro-2-phenylpropanoyl)piperidin-4-yl]methyl}piperidin-1-yl)-2-chloro-N,N-dimethylpyridine-3-carboxamide] | 
5 |  |  |  | NO IP |  | CN(C)C(=O)c1ccc(N2CCC(CC3CCN(C(=O)[C@](O)(c4ccccc4)C(F)(F)C(F)(F)F)CC3)CC2)cc1Cl [Example 2-14, 2-chloro-N,N-dimethyl-4-[4-({1-[(2R)-3,3,4,4,4-pentafluoro-2-hydroxy-2-phenylbutanoyl]piperidin-4-yl}methyl)piperidin-1-yl]benzamide] | LXR beta Activity @ max dose (%) [1, 14]: 89%; LXR alpha Activity @ max dose (%) [2, 14]: 14%
6 | 35 | 5 | 4 | NO IP |  | COc1cccc([C@@](O)(C(=O)N2CCC(C)(CC3CCN(c4ccc(C(=O)N(C)C)c(Cl)n4)CC3)CC2)C(F)(F)F)c1 [Example 7-51, 2-chloro-N,N-dimethyl-6-[4-({4-methyl-1[(2R)-3,3,3-trifluoro-2-hydroxy-2-(3-methoxyphenyl)propanoyl]piperidin-4-yl}methyl)piperidin-1-yl]pyridine-3-carboxamide] | 
7 | 74 | 7 | 21 |  | 0.277 | COc1cc(F)cc([C@@](O)(C(=O)N2CC(CC3CCN(c4ccc(C(=O)N(C)C)c(Cl)c4)CC3)C2)C(F)(F)F)c1 [Example 2-61, 2-chloro-N,N-dimethyl-4-[4-({1-[(2R)-3,3,3-trifluoro-2-(3-fluoro-5-methoxyphenyl)-2-hydroxy-propanoyl]azetidin-3-yl}methyl)piperidin-1-yl]benzamide] | 
8 |  |  |  |  |  | COc1cccc(S(=O)(=O)N2CCC(CC3CCN(c4ccc(C(=O)N(C)C)c(Cl)c4)CC3)CC2)c1 [Example 13-11, 2-chloro-4-[4({1-[(3-methoxyphenyl)-sulfonyl]piperidin-4-yl}methyl)piperidin-1-yl]-N,N-dimethyl-benzamide] | EC50 [1, 7]: 98 nM; Emax [1, 8]: 64%; EC50 ([2]; co-activator recruitment to GST-LXRalpha LBD, TR-FRET, read-out: LXR alpha IP (Inflection Point, potency)): 0.733 µM; Emax [2, 10]: 23%
9 | 59 | 5 | 7 | NO IP |  | CN(C)C(=O)c1ccc(N2CCC(CC3CCN(C(=O)[C@](O)(c4cc(Cl)cc(Cl)c4)C(F)(F)F)CC3)CC2)cc1Cl [Example 2-93, 2-chloro-4-[4-({1-[(2R)-2-(3,5-dichloro-phenyl)-3,3,3-trifluoro-2-hydroxy-propanoyl]piperidin-4-yl}methyl)piperidin-1-yl]-N,N-dimethyl-benzamide] | 
10 | 64 | 52 | 15 |  | 0.459 | CC(C)c1cccc([C@@](O)(C(=O)N2CCC(CC3CCN(c4ccc(C(=O)N(C)C)cc4)CC3)CC2)C(F)(F)F)c1 [Example 2-125, N,N-dimethyl-4-{4-[(1-{(2R)-3,3,3-trifluoro-2-hydroxy-2-[3-(1-methyl-ethyl)phenyl]propanoyl}piperidin-4-yl)methyl]piperidin-1-yl}benzamide] | 
11 | 70 | 46 | 11 | NO IP |  | Cc1cccc(C(O)(C(=O)N2CCC(CC3CCN(c4ccc(C(=O)N(C)C)c(C)n4)CC3)CC2)C(F)(F)F)c1 (centres unmarked) [Example 7-6, N,N,2-trimethyl-6-[4-({1-[3,3,3-trifluoro-2-hydroxy-2-(3-methylphenyl)propanoyl]piperidin-4-yl}methyl)piperidin-1-yl]pyridine-3-carboxamide] | 
12 | 73 | 58 | 34 |  | 1.04 | CN(C)C(=O)c1ccc(N2CCC(CC3CCN(C(=O)[C@](O)(c4ccccc4)C(F)(F)F)CC3)CC2)cc1 [Example 2-128, N,N-dimethyl-4-[4-({1-[(2R)-3,3,3-trifluoro-2-hydroxy-2-phenyl-propanoyl]piperidin-4-yl}methyl)piperidin-1-yl]benzamide] | 
13 |  |  |  |  |  | CN(C)C(=O)c1ccc(N2CCC(CC3CCN(S(=O)(=O)c4cccc(Br)c4)CC3)CC2)cc1Cl [Example 13-12, 4-[4-({1-[(3-bromo-phenyl)sulfonyl]-piperidin-4-yl}methyl)-piperidin-1-yl]-2-chloro-N,N-dimethyl-benzamide] | EC50 [1, 7]: 83 nM; Emax [1, 8]: 54%; LXR alpha IP (Inflection Point, potency) [2, 9]: NO IP; Emax [2, 10]: 16%
14 | 95 | 22 | 10 | NO IP |  | CCOc1cccc([C@@](O)(C(=O)N2CCC(SC3CCN(c4ccc(C(=O)NC)c(Cl)n4)CC3)CC2)C(F)(F)F)c1 [Example 11-2, 2-chloro-6-[4-({1-[(2R)-2-(3-ethoxyphenyl)-3,3,3-trifluoro-2-hydroxypropanoyl]-piperidin-4-yl}-sulfanyl)piperidin-1-yl]-N-methyl-pyridine-3-carboxamide] | 
15 | 60 | 22 | 26 |  | 0.875 | CN(C)C(=O)c1ncc(N2CCC(CC3CCN(C(=O)C(O)(c4cccc(Cl)c4)C(F)(F)F)CC3)CC2)cc1Cl (centres unmarked) [Example 2-6, 3-chloro-5-[4-({1-[2-(3-chlorophenyl)-3,3,3-trifluoro-2-hydroxy-propanoyl]piperidin-4-yl}methyl)piperidin-1-yl]-N,N-dimethylpyridine-2-carboxamide] | 
16 | 46 | 14 | 20 |  | 0.296 | CN(C)C(=O)c1ccc(N2CCC(CC3CCN(C(=O)[C@](O)(c4ccccc4)C(F)F)CC3)CC2)cc1Cl [Example 2-166, 2-chloro-4-[4-({1-[(2R)-3,3-difluoro-2-hydroxy-2-phenyl-propanoyl]piperidin-4-yl}methyl)piperidin-1-yl]-N,N-dimethyl-benzamide] | 

Row | Compound | Emax [1, 3] [%] | EC50 [1, 4] [nM] | Emax [2, 5] [%] | LXR alpha IP (nM) [2, 6] | EC50 [2, 13] [µM] | also measured
17 | COc1cccc([C@@](O)(C(=O)N2CCC(SC3CCN(c4ccc(C(=O)N(C)C)c(Cl)c4)CC3)CC2)C(F)(F)F)c1 [Example 10-1, (R)-2-chloro-N,N-dimethyl-4-(4-(1-(3,3,3-trifluoro-2-hydroxy-2-(3-methoxyphenyl)propanoyl)piperidin-4-ylthio)piperidin-1-yl)benzamide] |  |  | 8 | NO IP |  | EC50 [1, 11]: 22 nM; Emax [1, 12]: 56%
18 | COc1cccc([C@@](O)(C(=O)N2CCC(C(=O)N3CCN(c4ccc(C(=O)N(C)C)c(Cl)c4)CC3)CC2)C(F)(F)F)c1 [Example 5-1, (R)-2-chloro-N,N-dimethyl-4-(4-(1-(3,3,3-trifluoro-2-hydroxy-2-(3-methoxyphenyl)propanoyl)piperidine-4-carbonyl)piperazin-1-yl)benzamide] |  |  |  | NO IP |  | EC50 [1, 11]: 12400 nM; Emax [1, 12]: 31%; Emax ([2]; read-out: LXR alpha Activity @ max dose (%)): 5%
